According to paper PMC10700596 (Nature Communications, 2023):

What was measured:
Assay in all cases: biochemical
Assay type in all cases: binding
Conditions in all cases: 10000 nM; read-out: Percent Control
[1] = target: ABL1(E255K)-phosphorylated (Homo sapiens, UniProt P00519, E255K)
From the text: (§1) . […] This panel includes several adverse drug reaction receptors such as the serotonin receptor 5HT2b, M1 and M2 muscarinic receptors and adrenergic receptors. […]. page 7:
(§2) Supplementary Figure 7: Non-GPCR off-target screening for 74. a)-e) Dose-response curves of 74 at […]
(§3) proliferator-activated receptor gamma (PPARγ, Eurofins item G124). Data in a)-e) and g)-i) represent two technical replicates. Source data are provided as a Source Data file.
(§4) (1 picture or pasted object on this page, not shown here)

[2] = target: ACVR1B (Homo sapiens, UniProt P36896)
From the text: as §1, §2, §3, §4

[3] = target: ADCK3 (Homo sapiens, UniProt Q8NI60)
From the text: as §1, §2, §3, §4

[4] = target: AKT1 (Homo sapiens, UniProt P31749)
From the text: as §1, §2, §3, §4

[5] = target: AKT2 (Homo sapiens, UniProt P31751)
From the text: as §1, §2, §3, §4

[6] = target: BRAF (Homo sapiens, UniProt P15056)
From the text: as §1, §2, §3, §4

[7] = target: CDK7 (Homo sapiens, UniProt P50613)
From the text: as §1, §2, §3, §4

[8] = target: EGFR (Homo sapiens, UniProt P00533)
From the text: as §1, §2, §3, §4

[9] = target: EGFR(L858R) (Homo sapiens, UniProt P00533, L858R)
From the text: as §1, §2, §3, §4

[10] = target: JNK1 (Homo sapiens, UniProt P45983)
From the text: as §1, §2, §3, §4

[11] = target: MET (Homo sapiens, UniProt P08581)
From the text: as §1, §2, §3, §4

[12] = target: PIK3CA (Homo sapiens, UniProt P42336)
From the text: as §1, §2, §3, §4

[13] = target: SRC (Homo sapiens, UniProt P12931)
From the text: as §1, §2, §3, §4

[14] = target: SRPK3 (Homo sapiens, UniProt Q9UPE1)
From the text: as §1, §2, §3, §4

[15] = target: IGF1R (Homo sapiens, UniProt P08069)
From the text: (§5) Source data are provided as a Source Data file.

[16] = target: KIT (Homo sapiens, UniProt P10721)
From the text: as §5

[17] = target: KIT(D816V) (Homo sapiens, UniProt P10721, D816V)
From the text: as §5

[18] = target: KIT(V559D,T670I) (Homo sapiens, UniProt P10721, T670I/V559D)
From the text: as §5

[19] = target: LKB1 (Homo sapiens, UniProt Q15831)
From the text: as §5

[20] = target: MAP3K4 (Homo sapiens, UniProt Q9Y6R4)
From the text: as §5

[21] = target: MAPKAPK2 (Homo sapiens, UniProt P49137)
From the text: as §5

[22] = target: MEK1 (Homo sapiens, UniProt Q02750)
From the text: as §5

[23] = target: MEK2 (Homo sapiens, UniProt P36507)
From the text: as §5

[24] = target: MKNK1 (Homo sapiens, UniProt Q9BUB5)
From the text: as §5

[25] = target: MKNK2 (Homo sapiens, UniProt Q9HBH9)
From the text: as §5

[26] = target: MLK1 (Homo sapiens, UniProt P80192)
From the text: as §5

[27] = target: PAK1 (Homo sapiens, UniProt Q13153)
From the text: as §5

[28] = target: PAK2 (Homo sapiens, UniProt Q13177)
From the text: as §5

[29] = target: PAK4 (Homo sapiens, UniProt O96013)
From the text: as §5

[30] = target: PCTK1 (Homo sapiens, UniProt Q00536)
From the text: as §5

[31] = target: PDGFRB (Homo sapiens, UniProt P09619)
From the text: as §5

[32] = target: PIM2 (Homo sapiens, UniProt Q9P1W9)
From the text: as §5

[33] = target: PIM3 (Homo sapiens, UniProt Q86V86)
From the text: as §5

[34] = target: PKAC-alpha (Homo sapiens, UniProt P17612)
From the text: as §5

[35] = target: PLK1 (Homo sapiens, UniProt P53350)
From the text: as §5

[36] = target: PLK3 (Homo sapiens, UniProt Q9H4B4)
From the text: as §5

[37] = target: PLK4 (Homo sapiens, UniProt O00444)
From the text: as §5

[38] = target: RAF1 (Homo sapiens, UniProt P04049)
From the text: as §5

[39] = target: RET (Homo sapiens, UniProt P07949)
From the text: as §5

[40] = target: RIOK2 (Homo sapiens, UniProt Q9BVS4)
From the text: as §5

[41] = target: VEGFR2 (Homo sapiens, UniProt P35968)
From the text: as §5

[42] = target: p38-beta (Homo sapiens, UniProt Q15759)
From the text: as §5

ACVR1B, sequence (P36896 24-505): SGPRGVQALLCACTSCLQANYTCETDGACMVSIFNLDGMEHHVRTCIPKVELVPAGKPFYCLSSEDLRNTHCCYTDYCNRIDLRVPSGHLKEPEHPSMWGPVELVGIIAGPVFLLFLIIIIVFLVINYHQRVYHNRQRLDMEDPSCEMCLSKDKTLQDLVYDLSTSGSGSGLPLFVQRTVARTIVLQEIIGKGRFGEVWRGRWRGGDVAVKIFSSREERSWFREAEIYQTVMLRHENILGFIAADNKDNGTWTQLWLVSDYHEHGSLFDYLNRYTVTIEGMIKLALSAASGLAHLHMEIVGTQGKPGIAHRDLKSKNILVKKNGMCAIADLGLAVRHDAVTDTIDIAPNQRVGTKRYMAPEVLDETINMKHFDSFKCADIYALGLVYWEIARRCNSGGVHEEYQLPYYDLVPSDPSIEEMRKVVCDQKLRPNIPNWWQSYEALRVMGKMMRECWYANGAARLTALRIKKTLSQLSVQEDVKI
LKB1, sequence (Q15831 whole entry): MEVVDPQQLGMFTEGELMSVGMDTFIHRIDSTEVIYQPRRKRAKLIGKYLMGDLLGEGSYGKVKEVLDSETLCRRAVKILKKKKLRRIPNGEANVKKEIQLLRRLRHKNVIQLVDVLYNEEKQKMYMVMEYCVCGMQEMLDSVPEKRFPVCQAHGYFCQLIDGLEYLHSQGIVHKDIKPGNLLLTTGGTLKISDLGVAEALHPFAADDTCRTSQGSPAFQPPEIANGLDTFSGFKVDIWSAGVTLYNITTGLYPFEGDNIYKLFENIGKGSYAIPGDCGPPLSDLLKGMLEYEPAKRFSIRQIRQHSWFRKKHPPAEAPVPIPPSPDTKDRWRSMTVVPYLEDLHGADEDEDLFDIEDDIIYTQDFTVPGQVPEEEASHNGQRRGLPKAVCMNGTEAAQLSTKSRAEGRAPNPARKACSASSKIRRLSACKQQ
PLK4, sequence (O00444 whole entry): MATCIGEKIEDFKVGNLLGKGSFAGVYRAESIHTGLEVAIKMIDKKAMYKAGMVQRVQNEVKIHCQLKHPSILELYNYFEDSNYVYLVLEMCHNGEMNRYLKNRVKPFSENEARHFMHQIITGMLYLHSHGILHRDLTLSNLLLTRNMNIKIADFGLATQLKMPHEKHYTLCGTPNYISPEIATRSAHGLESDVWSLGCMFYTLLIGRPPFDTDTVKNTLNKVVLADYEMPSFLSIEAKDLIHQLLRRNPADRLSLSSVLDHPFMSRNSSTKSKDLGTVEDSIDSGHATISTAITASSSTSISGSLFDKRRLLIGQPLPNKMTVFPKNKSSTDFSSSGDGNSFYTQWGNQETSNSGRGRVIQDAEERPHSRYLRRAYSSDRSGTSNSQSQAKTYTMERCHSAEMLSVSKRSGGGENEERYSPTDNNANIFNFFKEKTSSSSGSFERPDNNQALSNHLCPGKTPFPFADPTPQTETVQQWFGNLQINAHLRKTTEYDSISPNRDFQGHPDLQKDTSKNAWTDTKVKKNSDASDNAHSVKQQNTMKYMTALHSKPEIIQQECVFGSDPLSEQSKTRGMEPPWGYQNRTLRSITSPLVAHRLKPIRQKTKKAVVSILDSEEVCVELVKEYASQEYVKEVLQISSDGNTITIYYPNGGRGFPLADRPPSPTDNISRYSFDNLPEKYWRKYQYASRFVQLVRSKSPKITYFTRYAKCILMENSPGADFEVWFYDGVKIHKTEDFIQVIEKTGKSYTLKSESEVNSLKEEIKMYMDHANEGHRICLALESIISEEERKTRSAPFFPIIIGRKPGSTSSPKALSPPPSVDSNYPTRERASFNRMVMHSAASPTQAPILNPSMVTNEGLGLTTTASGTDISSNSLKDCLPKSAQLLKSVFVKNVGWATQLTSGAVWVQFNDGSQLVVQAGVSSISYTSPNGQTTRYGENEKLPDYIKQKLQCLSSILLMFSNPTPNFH
PAK2, sequence (Q13177 whole entry): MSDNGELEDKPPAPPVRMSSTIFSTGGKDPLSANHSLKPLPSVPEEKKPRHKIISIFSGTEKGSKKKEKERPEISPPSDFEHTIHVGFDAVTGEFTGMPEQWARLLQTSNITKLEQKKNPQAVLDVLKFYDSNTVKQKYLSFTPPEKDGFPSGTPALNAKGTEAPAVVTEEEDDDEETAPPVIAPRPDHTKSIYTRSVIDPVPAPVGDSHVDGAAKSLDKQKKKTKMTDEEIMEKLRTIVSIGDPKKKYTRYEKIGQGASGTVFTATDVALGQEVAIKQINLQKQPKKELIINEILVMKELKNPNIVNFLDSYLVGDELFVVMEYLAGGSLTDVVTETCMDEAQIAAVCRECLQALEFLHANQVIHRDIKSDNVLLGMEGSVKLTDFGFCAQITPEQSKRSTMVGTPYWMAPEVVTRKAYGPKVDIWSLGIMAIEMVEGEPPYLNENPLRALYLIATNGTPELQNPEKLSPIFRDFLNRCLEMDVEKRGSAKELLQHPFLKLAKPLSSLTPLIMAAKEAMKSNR
PLK3, sequence (Q9H4B4 whole entry): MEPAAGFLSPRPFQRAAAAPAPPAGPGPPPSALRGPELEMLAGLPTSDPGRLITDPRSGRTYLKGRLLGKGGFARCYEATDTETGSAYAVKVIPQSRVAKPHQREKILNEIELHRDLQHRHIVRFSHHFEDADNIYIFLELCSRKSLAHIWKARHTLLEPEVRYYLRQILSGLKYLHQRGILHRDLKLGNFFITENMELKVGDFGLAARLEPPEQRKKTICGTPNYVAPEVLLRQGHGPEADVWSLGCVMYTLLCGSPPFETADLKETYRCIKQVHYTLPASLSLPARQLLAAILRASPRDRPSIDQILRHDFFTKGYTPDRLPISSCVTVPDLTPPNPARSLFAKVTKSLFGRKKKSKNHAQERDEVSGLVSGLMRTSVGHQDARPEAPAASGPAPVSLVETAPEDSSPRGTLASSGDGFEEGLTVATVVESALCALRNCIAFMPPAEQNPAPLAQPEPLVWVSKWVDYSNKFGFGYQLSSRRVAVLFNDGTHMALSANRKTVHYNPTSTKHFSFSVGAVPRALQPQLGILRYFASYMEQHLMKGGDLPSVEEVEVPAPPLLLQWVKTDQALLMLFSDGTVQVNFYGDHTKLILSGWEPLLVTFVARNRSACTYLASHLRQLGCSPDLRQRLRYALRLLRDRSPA
MET, sequence (P08581 25-1390): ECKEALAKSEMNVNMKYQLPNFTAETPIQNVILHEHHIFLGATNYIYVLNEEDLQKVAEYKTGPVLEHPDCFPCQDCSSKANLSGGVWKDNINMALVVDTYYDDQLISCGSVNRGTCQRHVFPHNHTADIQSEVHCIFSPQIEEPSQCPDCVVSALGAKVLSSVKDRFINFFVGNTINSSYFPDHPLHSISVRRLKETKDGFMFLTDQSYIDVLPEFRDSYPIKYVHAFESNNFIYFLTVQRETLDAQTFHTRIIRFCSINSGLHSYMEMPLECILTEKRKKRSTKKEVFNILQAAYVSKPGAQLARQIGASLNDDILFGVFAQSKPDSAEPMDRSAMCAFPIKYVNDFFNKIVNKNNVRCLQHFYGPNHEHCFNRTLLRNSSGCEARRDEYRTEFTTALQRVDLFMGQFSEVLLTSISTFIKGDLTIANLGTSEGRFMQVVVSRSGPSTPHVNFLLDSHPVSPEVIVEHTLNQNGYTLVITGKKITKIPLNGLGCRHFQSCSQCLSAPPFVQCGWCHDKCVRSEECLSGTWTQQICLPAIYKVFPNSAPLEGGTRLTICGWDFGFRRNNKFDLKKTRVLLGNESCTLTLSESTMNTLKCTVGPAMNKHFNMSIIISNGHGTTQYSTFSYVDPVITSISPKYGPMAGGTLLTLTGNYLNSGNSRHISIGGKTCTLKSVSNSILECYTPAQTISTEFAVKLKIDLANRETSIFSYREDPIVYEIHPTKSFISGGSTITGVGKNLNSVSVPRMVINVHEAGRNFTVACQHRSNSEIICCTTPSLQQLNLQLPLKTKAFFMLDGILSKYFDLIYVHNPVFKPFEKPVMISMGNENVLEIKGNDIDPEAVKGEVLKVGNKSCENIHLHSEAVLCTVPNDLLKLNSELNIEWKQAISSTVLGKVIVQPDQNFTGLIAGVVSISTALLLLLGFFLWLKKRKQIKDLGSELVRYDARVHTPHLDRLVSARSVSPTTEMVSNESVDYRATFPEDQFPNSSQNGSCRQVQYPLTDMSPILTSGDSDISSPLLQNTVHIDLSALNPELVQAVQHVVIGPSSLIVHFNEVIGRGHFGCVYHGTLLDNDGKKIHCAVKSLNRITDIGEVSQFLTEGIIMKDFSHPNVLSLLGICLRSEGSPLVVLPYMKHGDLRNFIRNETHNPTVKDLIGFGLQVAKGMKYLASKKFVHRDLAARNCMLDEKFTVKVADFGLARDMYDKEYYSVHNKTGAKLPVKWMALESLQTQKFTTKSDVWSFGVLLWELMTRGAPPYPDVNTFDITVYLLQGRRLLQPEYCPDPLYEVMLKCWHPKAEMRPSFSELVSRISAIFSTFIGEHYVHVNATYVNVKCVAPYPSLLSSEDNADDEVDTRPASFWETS
PAK1, sequence (Q13153 whole entry): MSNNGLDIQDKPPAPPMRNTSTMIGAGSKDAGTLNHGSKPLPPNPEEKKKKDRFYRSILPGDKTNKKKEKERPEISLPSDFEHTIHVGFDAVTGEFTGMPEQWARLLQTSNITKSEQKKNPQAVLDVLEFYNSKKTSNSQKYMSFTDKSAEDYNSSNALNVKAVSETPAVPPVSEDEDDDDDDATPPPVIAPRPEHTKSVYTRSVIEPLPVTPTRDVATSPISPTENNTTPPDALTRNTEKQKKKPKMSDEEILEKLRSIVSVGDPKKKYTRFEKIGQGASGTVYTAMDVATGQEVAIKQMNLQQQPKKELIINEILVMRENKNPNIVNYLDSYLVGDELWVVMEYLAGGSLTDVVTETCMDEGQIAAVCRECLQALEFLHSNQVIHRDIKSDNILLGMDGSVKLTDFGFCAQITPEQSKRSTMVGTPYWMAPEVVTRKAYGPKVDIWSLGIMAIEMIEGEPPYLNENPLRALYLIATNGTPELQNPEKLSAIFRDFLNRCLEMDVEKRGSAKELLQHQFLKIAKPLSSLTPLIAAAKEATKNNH

O=C(O)C1CCC2(CC1)CC(Nc1ncnc3[nH]c4c(F)cccc4c13)C2 (stereo not drawn) [Compound 74, OC(=O)C1CCC2(CC(C2)NC=3N=CN=C4NC=5C(F)=CC=CC5C34)CC1]
remaining activity at 10 µM [1]: 57% | remaining activity at 10 µM [2]: 55% | remaining activity at 10 µM [3]: 85% | remaining activity at 10 µM [4]: 100% | remaining activity at 10 µM [5]: 74% | remaining activity at 10 µM [6]: 86% | remaining activity at 10 µM [7]: 62% | remaining activity at 10 µM [8]: 96% | remaining activity at 10 µM [9]: 84% | remaining activity at 10 µM [10]: 35% | remaining activity at 10 µM [11]: 100% | remaining activity at 10 µM [12]: 64% | remaining activity at 10 µM [13]: 88% | remaining activity at 10 µM [14]: 67% | remaining activity at 10 µM [15]: 100% | remaining activity at 10 µM [16]: 75% | remaining activity at 10 µM [17]: 76% | remaining activity at 10 µM [18]: 56% | remaining activity at 10 µM [19]: 97% | remaining activity at 10 µM [20]: 92% | remaining activity at 10 µM [21]: 98% | remaining activity at 10 µM [22]: 24% | remaining activity at 10 µM [23]: 23% | remaining activity at 10 µM [24]: 72% | remaining activity at 10 µM [25]: 62% | remaining activity at 10 µM [26]: 45% | remaining activity at 10 µM [27]: 76% | remaining activity at 10 µM [28]: 66% | remaining activity at 10 µM [29]: 65% | remaining activity at 10 µM [30]: 94% | remaining activity at 10 µM [31]: 60% | remaining activity at 10 µM [32]: 100% | remaining activity at 10 µM [33]: 53% | remaining activity at 10 µM [34]: 99% | remaining activity at 10 µM [35]: 100% | remaining activity at 10 µM [36]: 97% | remaining activity at 10 µM [37]: 34% | remaining activity at 10 µM [38]: 98% | remaining activity at 10 µM [39]: 5.9% | remaining activity at 10 µM [40]: 54% | remaining activity at 10 µM [41]: 31% | remaining activity at 10 µM [42]: 79%
